Article PMC3608514 (Advances in enzyme regulation, 2009)

What was measured:
[1] = biological target: T1, DGK-θ (Homo sapiens, UniProt P52824); test: DGK activity assay; type: biochemical
T1 sequence (P52824 1-942): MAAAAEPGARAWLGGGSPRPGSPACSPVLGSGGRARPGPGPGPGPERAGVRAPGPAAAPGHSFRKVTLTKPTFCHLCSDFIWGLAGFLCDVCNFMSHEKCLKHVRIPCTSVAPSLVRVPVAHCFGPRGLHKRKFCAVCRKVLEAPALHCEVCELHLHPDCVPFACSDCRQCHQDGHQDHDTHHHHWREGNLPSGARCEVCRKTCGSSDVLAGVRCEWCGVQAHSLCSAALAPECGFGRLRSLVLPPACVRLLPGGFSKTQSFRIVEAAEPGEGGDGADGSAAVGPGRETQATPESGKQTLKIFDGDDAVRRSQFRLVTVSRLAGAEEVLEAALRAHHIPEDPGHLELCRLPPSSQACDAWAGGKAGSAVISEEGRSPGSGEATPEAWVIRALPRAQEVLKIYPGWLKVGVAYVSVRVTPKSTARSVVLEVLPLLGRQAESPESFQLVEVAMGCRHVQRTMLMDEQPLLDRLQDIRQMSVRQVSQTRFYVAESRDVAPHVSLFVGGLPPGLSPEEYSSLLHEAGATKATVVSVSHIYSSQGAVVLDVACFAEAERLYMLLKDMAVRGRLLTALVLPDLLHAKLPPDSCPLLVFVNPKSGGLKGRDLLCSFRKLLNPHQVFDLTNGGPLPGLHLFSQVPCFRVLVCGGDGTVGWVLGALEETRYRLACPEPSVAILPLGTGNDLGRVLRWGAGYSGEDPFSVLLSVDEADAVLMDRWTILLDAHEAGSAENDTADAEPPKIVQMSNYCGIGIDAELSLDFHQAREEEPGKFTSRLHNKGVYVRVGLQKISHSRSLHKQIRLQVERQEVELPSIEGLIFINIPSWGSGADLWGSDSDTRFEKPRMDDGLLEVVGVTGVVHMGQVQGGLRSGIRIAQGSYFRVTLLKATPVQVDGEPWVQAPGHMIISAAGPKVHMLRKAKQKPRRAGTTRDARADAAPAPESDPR

[2] = biological target: T1, DGK-θ

Compound `COc1ccc2c(c1)CC[C@@H]1[C@@H]2CC[C@]2(C)[C@@H](NCCCCCCN3C(=O)C=CC3=O)CC[C@@H]12` [U73122] has a Ki [1] of about 20 µM.
With `O=P(O)(O)OP(=O)(O)O` [NaPPi, sodium pyrophosphate] the “DGK activity assay in OG mixed micelles with cytosol over-expressing DGKθ; dose” value [2] was 1 to 2 mM.
